In US20100298141A1, “SUBSTITUTED PYRIDINE N-OXIDE HERBICIDES” (E. I. DU PONT DE NEMOURS AND COMPANY, priority 2007, published 2010):

Assays:
umbrella sedge = assay: Test C flooded paddy test; type: in vivo, Cyperus difformis; settings: Flood
Procedure, shortened: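 Under a constant 3 cm flood, test compounds went directly into the paddy water. Following 13 to 15 days of greenhouse growth, treated species and controls were compared by eye.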

Goosegrass = assay: Test C pre-/postemergence test; type: in vivo, Eleusin indica
Procedure, shortened: (§1)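 Seeds were planted and treated preemergence with test chemical in a non-phytotoxic solvent mixture containing surfactant. Postemergence applications of the same formulation went onto plants 2 to 18 cm tall (1- to 4-leaf stage). A dash marks no test result.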

crabgrass [1] = assay: Test A pre-/postemergence greenhouse test; type: in vivo, Digitaria sanguinalis; settings: for Plant response rating, Crabgrass, Large: 0 to 100 scale where 0 is no effect and 100 is complete control; for Crabgrass, Large plant response rating: 0 to 100 scale
Procedure, shortened: (§2)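 Test compounds in non-phytotoxic solvent with surfactant were applied as a preemergence soil spray to seeded loam/sand pots and, concurrently, postemergence to plants at 2–10 cm, one- to two-leaf stage. About ten days in greenhouse, then injury visually rated against untreated controls.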

giant foxtail = assay: Test C pre-/postemergence test; type: in vivo, Setaria faberii
Procedure, shortened: as §1

Surinam grass = assay: Test C pre-/postemergence test; type: in vivo, Brachiaria decumbens; settings: for Surinam Grass plant response rating: preemergence, scale 0 (no effect) to 100 (complete control)
Procedure, shortened: as §1

corn [2] = assay: Test C pre-/postemergence test; type: in vivo, Zea mays
Procedure, shortened: as §1

morningglory = assay: Test C pre-/postemergence test; type: in vivo, Ipomoea coccinea
Procedure, shortened: as §1

barnyardgrass = assay: Test A pre-/postemergence greenhouse test; type: in vivo, Echinochloa crus-galli; settings: for Plant response rating, Barnyardgrass: 0 to 100 scale where 0 is no effect and 100 is complete control; for Barnyardgrass plant response rating: 0 to 100 scale
Procedure, shortened: as §2

wheat = assay: Test A pre-/postemergence greenhouse test; type: in vivo, Triticum aestivum; settings: for Plant response rating, Wheat: 0 to 100 scale where 0 is no effect and 100 is complete control; for Wheat plant response rating: 0 to 100 scale
Procedure, shortened: as §2

velvetleaf = assay: Test C pre-/postemergence test; type: in vivo, Abutilon theophrasti
Procedure, shortened: as §1

corn [3] = assay: Test A pre-/postemergence greenhouse test; type: in vivo, Zea mays; settings: for Plant response rating, Corn: 0 to 100 scale where 0 is no effect and 100 is complete control; for Corn plant response rating: 0 to 100 scale
Procedure, shortened: as §2

[4] = tested on: common (oilseed) sunflower; assay: Test C pre-/postemergence test; type: in vivo, Helianthus annuus
Procedure, shortened: as §1

Italian ryegrass = assay: Test C pre-/postemergence test; type: in vivo, Lolium multiflorum
Procedure, shortened: as §1

pigweed = assay: Test C pre-/postemergence test; type: in vivo, Amaranthus retroflexus
Procedure, shortened: as §1

crabgrass [5] = assay: Test C pre-/postemergence test; type: in vivo, Digitaria sanguinalis
Procedure, shortened: as §1

johnsongrass = assay: Test C pre-/postemergence test; type: in vivo, Sorghum halepense
Procedure, shortened: as §1

eastern black nightshade = assay: Test C pre-/postemergence test; type: in vivo, Solanum ptycanthum
Procedure, shortened: as §1

[6] = 62 g ai/ha, Preemergence, scale 0 to 100
[7] = 125 g ai/ha, preemergence, scale 0 (no effect) to 100 (complete control)
[8] = Preemergence, 31 g ai/ha, scale 0 to 100 (0 no effect, 100 complete control)
[9] = preemergence, 250 g ai/ha, scale 0 (no effect) to 100 (complete control)
[10] = Postemergence, 500 g ai/ha, 0 is no effect, 100 is complete control
[11] = Preemergence, 125 g ai/ha, 0 no effect, 100 complete control

Cn1nc(C(F)(F)F)c(CS(=O)(=O)c2ccc(Cl)c[n+]2[O-])c1OCC(F)(F)F [Compound 73]
Plant response rating, Sedge, Umbrella (umbrella sedge; 62 g ai/ha, scale 0 to 100 (0 no effect, 100 complete control)): 0 | Plant response rating, Sedge, Umbrella (umbrella sedge; 250 g ai/ha, scale 0 to 100, 0 no effect, 100 complete control, 13 to 15 days): 65 | Goosegrass plant response rating (Goosegrass; [6]): 100 | Goosegrass plant response rating (Goosegrass; [7]): 100 | Plant response rating, Goosegrass (Goosegrass; [8]): 98 | Goosegrass plant response rating (Goosegrass; [9]): 100 | Plant response rating, Crabgrass, Large (crabgrass [1]; Postemergence, 125 g ai/ha): 60 | Crabgrass, Large plant response rating (crabgrass [1]; [10]): 80 | Crabgrass, Large plant response rating (crabgrass [1]; [11]): 70 | Plant response rating, Crabgrass, Large (crabgrass [1]; Preemergence, 500 g ai/ha): 90 | Foxtail, Giant plant response rating (giant foxtail; [6]): 10 | Foxtail, Giant plant response rating (giant foxtail; [7]): 80 | Plant response rating, Foxtail, Giant (giant foxtail; [8]): 10 | Foxtail, Giant plant response rating (giant foxtail; [9]): 80 | Surinam Grass plant response rating (Surinam grass; 125 g ai/ha): 80 | Plant response rating, Surinam Grass (Surinam grass; [8]): 40 | Surinam Grass plant response rating (Surinam grass; 250 g ai/ha): 80 | Corn plant response rating (corn [2]; [6]): 0 | Corn plant response rating (corn [2]; [7]): 0 | Plant response rating, Corn (corn [2]; [8]): 0 | Corn plant response rating (corn [2]; [9]): 30 | Morningglory plant response rating (morningglory; [6]): 0 | Morningglory plant response rating (morningglory; [7]): 0 | Plant response rating, Morningglory (morningglory; [8]): 0 | Morningglory plant response rating (morningglory; [9]): 0 | Plant response rating, Barnyardgrass (barnyardgrass; Postemergence, 125 g ai/ha): 70 | Barnyardgrass plant response rating (barnyardgrass; [10]): 80 | Barnyardgrass plant response rating (barnyardgrass; [11]): 90 | Plant response rating, Barnyardgrass (barnyardgrass; Preemergence, 500 g ai/ha): 90 | Plant response rating, Wheat (wheat; Postemergence, 125 g ai/ha): 0 | Wheat plant response rating (wheat; [10]): 30 | Wheat plant response rating (wheat; [11]): 0 | Plant response rating, Wheat (wheat; Preemergence, 500 g ai/ha): 50 | Velvetleaf plant response rating (velvetleaf; [6]): 30 | Velvetleaf plant response rating (velvetleaf; [7]): 40 | Plant response rating, Velvetleaf (velvetleaf; [8]): 0 | Velvetleaf plant response rating (velvetleaf; [9]): 70 | Plant response rating, Corn (corn [3]; Postemergence, 125 g ai/ha): 0 | Corn plant response rating (corn [3]; [10]): 0 | Corn plant response rating (corn [3]; [11]): 0 | Plant response rating, Corn (corn [3]; Preemergence, 500 g ai/ha): 30 | Sunflower plant response rating [4, 6]: 0 | Sunflower plant response rating [4, 7]: 35 | Plant response rating, Sunflower [4, 8]: 0 | Sunflower plant response rating [4, 9]: 40 | Ryegrass, Italian plant response rating (Italian ryegrass; [6]): 10 | Ryegrass, Italian plant response rating (Italian ryegrass; [7]): 60 | Plant response rating, Ryegrass, Italian (Italian ryegrass; [8]): 0 | Ryegrass, Italian plant response rating (Italian ryegrass; [9]): 98 | Pigweed plant response rating (pigweed; [6]): 100 | Pigweed plant response rating (pigweed; [7]): 100 | Plant response rating, Pigweed (pigweed; [8]): 90 | Pigweed plant response rating (pigweed; [9]): 100 | Crabgrass, Large plant response rating (crabgrass [5]; [6]): 85 | Crabgrass, Large plant response rating (crabgrass [5]; [7]): 85 | Plant response rating, Crabgrass, Large (crabgrass [5]; [8]): 85 | Crabgrass, Large plant response rating (crabgrass [5]; [9]): 95 | Johnsongrass plant response rating (johnsongrass; [6]): 100 | Johnsongrass plant response rating (johnsongrass; [7]): 100 | Plant response rating, Johnsongrass (johnsongrass; [8]): 70 | Johnsongrass plant response rating (johnsongrass; [9]): 100 | Nightshade plant response rating (eastern black nightshade; [6]): 80 | Nightshade plant response rating (eastern black nightshade; [7]): 80 | Plant response rating, Nightshade (eastern black nightshade; [8]): 0 | Nightshade plant response rating (eastern black nightshade; [9]): 85
